# Measurements as given in US6248309A, “Gums containing antimicrobial agents” (priority 1999, dated 2001).
# Values joined by “and” are separate entries in the source; they are usually repeats but may differ in a detail not shown here. Equal values may be shown once. Read-outs that look alike come from different tables or passages of the source.
# Key:
# [1] = system: Campylobacter rectus (CR); test: MIC of agents alone, in pairs and in three-agent combination (Example 2); format: cell-based; conditions: CR, agent used alone, read-out: MIC, individual agent alone
# Excerpt: (§1) In addition, the example describes how the MIC of antimicrobial agents in the combinations are reduced compared to the MIC of those antimicrobial agents alone and the MIC of those agents in various pairings. Numerous combinations of the antimicrobial agents described herein were combined to form combinations comprising three antimicrobial agents or triplets. Each of the formed triplets included either cedarwood oil or berberine hydrochloride.
# (§2) The protocol used was a variation of the procedure described above in Example 1. The assay was carried out in the two-dimensional array of a 96-well plate. In order to evaluate three agents, two of the agents were paired against the third agent. For example, varying concentrations of antimicrobial agent A plus antimicrobial agent B versus varying concentrations of antimicrobial agent C were evaluated on one 96-well plate. The procedure was repeated with the other two possible pairings, i.e., A+C with B, and B+C with A. Accordingly, each triplet required three assays in order to assess each of the three possible pairings.
# (§3) The bacterial innoculum was prepared as described in Example 1.
# A sterile polystyrene 96-well plate was used to dilute the antimicrobial agents A, B and C. […]
# (§4) The 96-well plate was then incubated under conditions that varied by microorganism. […] The plate was then read for microbial growth with a spectrophotometer by optical density. […]
# [2] = system: Streptococcus mutans (SM); test: as above; format: cell-based, Streptococcus mutans ATCC 25175; conditions: SM, agent used alone
# Excerpt: as §1, §2, §3
# (§5) A sterile polystyrene 96-well plate was used to dilute the antimicrobial agents A, B and C. Using aseptic technique, 100 microliters of distilled water was placed in each test well. The dilution scheme was separated into two parts. First, the dilution of the combined agents A and B and then second, the dilution of agent C. A dilution of agents A and B was accomplished by placing 50 microliters of stock solution for agent A in the first well of each column. Next, 50 microliters of stock solution for agent B was added to each of the first wells of each column. Accordingly, the first well of each column included 50 microliters of stock solution for agent A and 50 microliters of stock solution for agent B. 100 microliters from the first row in each column was then transferred to the next well in the column and so on down the column. Each transfer was a one-half dilution of the preceding concentration.
# (§6) The dilution of antimicrobial agent C was accomplished by adding 100 microliters of agent C stock solution to the first well of each row. 100 microliters from the first well in each row was then transferred to the next well and so on across the row of test wells. Each transfer was a one-half dilution of the preceding concentration. FIG. 1 is a schematic illustration of the concentrations of antimicrobial agents A, B and C derived from the dilution scheme described above. […] The concentration of agent C decreases across a row from left to right. […]
# as §4
# [3] = format: in vivo, human volunteers; conditions: in vivo
# Description: The saliva samples were refrigerated until analysis.
# To either 2.7 grams unchewed gum sample or the remaining bolus of chewed gum, was added 3.0 millileters of internal standard (Hesperetin) in methanol, 6.0 milliliters hexane and 3.0 milliliters distilled water. Samples were homogenized using a Polytron Homogenizer model PT10/35 from Brinkmann Instruments, fitted with a PTA10TS generator for at least 30 seconds on ice, or until no lumps of non-dispersed gum were visible in the sample. Samples were then centrifuged in a Dynac Tabletop Centrifuge at top speed for ten minutes. The lower, amber, aqueous/methanol layer were then filtered through 25 millimeter, 0.45 micrometer nylon Acrodisc syringe filters from Gelman into 4 milliliter autosampler vials and tightly capped with polytetrafluorothylene lined septum in open-top screw caps. These samples were then analyzed using high pressure liquid chromatography for glabridin and/or glycyrrhizic and 18β-glycyrrhetinic acid, and were quantitated against a 4-point linear curve prepared by spiking approximately 2.7 grams unchewed samples of Wrigley Extra Sugarfree Peppermint gum with known levels of purified glabridin, glycyrrhizic acid monoammonium salt and 18β-glycyrrhetinicacid.
# For the analysis of the gum bolus, both chewed and unchewed, a Polytron Homogenizer, described above was used. The gum sample was placed in a heavy wall glass tube. Internal standard ([…]) ethyl acetate ([…]) and water ([…]) were added. The sample was homogenized for approximately 30 seconds, or until no particles could be seen. The tubes were then centrifuged for 10 minutes on a clinical centrifuge at maximum speed. The supernatant was injected directly onto the gas chromatograph. The oven program was modified to allow resolution of ROF1 components from those of the peppermint flavoring. The gas chromatograph was calibrated using a three point standard curve to quantify the following components: menthol (flavor); geraniol (oil geraniol); cedrene, thujopsene (RC1); pinene, cineol, camphor, bornyl acetate (ROF1). The initial temperature was decreased from 140° C. to 100° C. The temperature gradient was changed from 10° C./minute to 4° C./minute. The split ratio was 50:1, and injection volume was 1 μL as per the method. A cleanup gradient was run every fifth sample as described previously.
# A recovery study was performed in triplicate using blank Wrigley's Peppermint Gum (chewed and unchewed) spiked with stand and solution. Recovery was calculated relative to a direct standard consisting of spike solution without sample matrix.
# [4] = system: Actinomyces viscosus (AV); test: MIC of agents alone, in pairs and in three-agent combination (Example 2); format: cell-based, Actinomyces viscosus ATCC 19246; conditions: AV, agent used alone
# Excerpt: as §1, §2, §3, §5, §6, §4
# [5] = clinical; conditions: human, in vivo
# Description: (§7) Ten volunteers chewed 2.7 grams samples of each gum formulation and provided saliva samples at intervals and the gum bolus at the end of the 25 minute chewing period. High pressure liquid chromatography and gas chromatography were used to analyze the gum bolus and saliva non-volatile and volatile components, respectively.
# (§8) Saliva samples were collected from each of the individuals prior to chewing 2.7 grams of gum, and at 1.0, 2.5, 5.0, 10.0, and 25.0 minutes while chewing the gum. The saliva samples were refrigerated until analysis. The gum bolus that remained after 25 minutes was saved and extracted immediately or stored refrigerated until extraction for analysis.
# (§9) Samples were Vortex-mixed in Multi-tube vortex mixer for one minute and then centrifuged at top speed in clinical centrifuge for two minutes. Supernatants were carefully transferred to 1 milliliter glass shell vials and capped. Analysis was carried out either by isocratic elution for glabridin-only samples, or gradient elution for the samples containing the glycyrrhizic and 18β-glycyrrhetinic acids using high pressure liquid chromatography. Glabridin concentrations were converted to GLY concentrations by taking the weight percent glabridin in GLY to be 2.74 percent.
# (§10) The calibration curve was prepared using spiked blank saliva.
# (§11) For saliva, the essential oils of menthol, cedarwood oil, geraniol and Rosmarinus officianalis were determined by capillary gas chromatography. The split ratio was 25:1. The injection volume was 2 μL. Four hundred μL of saliva was extracted from the 1 milliliter of ethyl acetate containing an internal standard (hexadecane) in 1.5 milliliter Eppendorf tubes. After centrifugation, the organic layer was injected directly into the Hewlett-Packard 6890 gas chromatograph. […] For this reason, only the samples from 0 to 10 minutes were analyzed. A cleanup gradient was run from 190 to 300° C. every fifth sample to remove less volatile interferences from the column.
# [6] = system: Streptococcus sanguis (SS); test: MIC of agents alone, in pairs and in three-agent combination (Example 2); format: cell-based, Streptococcus sanguis ATCC 49295; conditions: SS; agent used alone
# Excerpt: as §1, §2, §3
# A sterile polystyrene 96-well plate was used to dilute the antimicrobial agents A, B and C. Using aseptic technique, 100 microliters of distilled water was placed in each test well. The dilution scheme was separated into two parts. First, the dilution of the combined agents A and B and then second, the dilution of agent C. A dilution of agents A and B was accomplished by placing 50 microliters of stock solution for agent A in the first well of each column. Next, 50 microliters of stock solution for agent B was added to each of the first wells of each column. […]
# as §4
# [7] = system: Fusobacterium nucleatum (FN); test: as above; format: cell-based, Fusobacterium nucleatum ATCC 10933; conditions: FN, agent used alone
# Excerpt: as §1, §2, §3, §5, §6, §4
# [8] = system: Porphyromonas gingivalis; test: MIC of each agent used in Example 5; format: cell-based; conditions: starting dilution 0.1 percent in methanol, MIC defined in micrograms per milliliter, read-out: MIC relative to Porphyromonas gingivalis used in Example 5
# Description: The MIC Range was determined against a standard panel of five organisms that included Actinomyces viscosus, Fusobacterium nucleatum, Porphyromonas gingivalis, Streptococcus mutans, and Stretococcus sanguis. The starting dilution was 0.1 percent in methanol. The MIC used in this Example 5 was the MIC for each agent relative to Porphyromonas gingivalis.
# [9] = for Rate of release from gum: in words
# Description: as §7, §8, §9, §10, §11
# [10] = system: Porphyromonas gingivalis (PG); test: MIC of agents alone, in pairs and in three-agent combination (Example 2); format: cell-based, Porphyromonas gingivalis ATCC 33277; conditions: PG, agent used alone
# Excerpt: as §1, §2, §3, §5, §6, §4
smiles,measurement,setting,value
"CC(C)=CCC/C(C)=C/CO [GRA1, trans-3,7-dimethyl-2,6-octadien-1-ol]",MIC,[1],250 µg/mL
same,"MIC, individual agent alone",[2],125 µg/mL
same,MIC,"[2]; Streptococcus mutans, read-out: MIC, individual agent alone",125 µg/mL
same,Release from Chewed Gum Bolus after 25 min,[3],34%
same,"MIC, individual agent alone",[4],62.5 µg/mL and 125 µg/mL
same,MIC,"[4]; Actinomyces viscosus, read-out: MIC, individual agent alone",125 µg/mL
same,concentration at 1 min,[5],6000 ng/mL
same,concentration at 2.5 min,[5],6000 ng/mL
same,concentration at 5 min,[5],7000 ng/mL
same,concentration at 10 min,[5],5000 ng/mL
same,"MIC, individual agent alone",[6],125 µg/mL and 62.5 µg/mL and 250 µg/mL
same,"MIC, individual agent alone",[7],62.5 µg/mL and 125 µg/mL
same,MIC,"[7]; Fusobacterium nucleatum, read-out: MIC, individual agent alone",62.5 µg/mL
same,MIC,[8],7.8 µg/mL
same,Above MIC in Saliva (Y/N),[9]; concentration in saliva at any time above MIC relative to Porphyromonas gingivalis,No
same,Time maintaining a presence in the oral cavity,"[9]; human, in vivo",about 25 minutes
same,Rate of release from gum,[9]; listed as GRA,released more slowly and over a longer period of time
same,Rate of release from gum,[9]; listed as geraniol,released from a gum base less quickly and over a longer period of time
same,"MIC, individual agent alone",[10],62.5 µg/mL
same,MIC,"[10]; Porphyromonas gingivalis, read-out: MIC, individual agent alone",62.5 µg/mL
